Read-outs that look alike come from different tables or passages of the source. Marks after values point to notes of the source that are not given here.
Tests used:
[1] = test system: A-498 cells; assay: MTT cytotoxicity assay; type: cell-based, human
Method: (§1) Preliminary studies examining the in vitro cytotoxicity of cis-AVTP and trans-AVTG as compared to the parent drugs, were carried out using the 3-[4,5-dimethylthiazol-2-yl]-2,5-diphenyl tetrazolium bromide (MTT) cytotoxicity assay.

[2] = test system: ACHN cells; assay: MTT cytotoxicity assay; type: cell-based, human
Method: as §1

[3] = test system: all the cell lines included in the screen; assay: cells
Method: cis-AVTP and trans-AVTG were tested in National Cancer Institute's (NCI) 60 cell lines derived from leukemia, melanoma, lung, kidney cancers. Most chemotherapeutic agents currently nd 6-TG, have been tested in this screen and a database he National Institutes of Health. The NCI assigned s-AVTP, and number NSC-722289 to trans-AVTG. tocol used for the cytotoxicity assessment in the NCI e from the National Institutes of Health. Briefly, tumor ma, lung, colon, brain, ovary, breast, prostate, and um containing 5% fetal bovine serum and 2 mM L-glutamine re plated in a 100 μL volume into 96 well microtiter 37° C. in humidified atmosphere supplemented with 5% ach cell line were fixed with trichloroacetic acid for f drug addition (Tz). The drugs, as 400-fold concentrated uted to twice the final maximum test concentration with entamicin. Additional four 10-fold dilutions were made us control. Aliquots (100 μl) of the drug solutions were 100 μl of medium, resulting in the required final drug the plates were incubated at 37° C. in humidified for additional 48 h. The assay was terminated by the w/v) trichloroacetic acid for adherent and suspension minutes at 4° C. The supernatant was discarded, the and air dried. A 100 μl aliquot of 0.4% (w/v) sulforhodamine B (SRB) solution in 1% acetic acid was added to each well, and the plates incubated for 10 minutes at room temperature. After staining, unbound dye was removed by washing five times with 1% acetic acid and the plates air dried. Bound stain was solubilized with 10 mM trizma base, and the absorbance read on a plate reader at a wavelength of 515 nm.
By using time zero (Tz), control growth (C), and test growth in the presence of drug at the five concentration levels (Ti), the percentage growth was calculated at each of the drug concentration levels. Percentage growth inhibition was calculated as:
[(Ti−Tz)/(C−Tz)]×100 for concentrations for which Ti>/=Tz
[(Ti−Tz)/Tz]×100 for concentrations for which Ti<Tz.
Three dose response parameters were calculated for each experimental agent. […] The TGI, the drug concentration resulting in total growth inhibition was calculated from Ti=Tz. The LC50 (the concentration of drug resulting in a 50% reduction in the measured protein at the end of the drug treatment as compared to that at the beginning) indicating a net loss of cells following treatment was calculated from [(Ti−Tz)/Tz]×100=−50. Values were calculated for each of these three parameters if the level of activity is reached; however, if the effect was not reached or was exceeded, the value for that parameter is expressed as greater or less than the maximum or minimum concentration tested.

[4] = test system: Breast cell lines
[5] = test system: Prostate cell lines
[6] = test system: Colon cell lines
[7] = test system: Renal cell lines
[8] = test system: Melanoma cell lines
[9] = test system: NSCL cell lines
[10] = test system: CNS cell lines
[11] = test system: Leukemia cell lines
[12] = test system: Breast cell lines; assay: cells
[13] = test system: Prostate cell lines; assay: cells
[14] = test system: Colon cell lines; assay: cells
[15] = test system: Renal cell lines; assay: cells
[16] = test system: Melanoma cell lines; assay: cells
[17] = test system: NSCL cell lines; assay: cells
[18] = test system: CNS cell lines; assay: cells; conditions: Homo sapiens
[19] = test system: Leukemia cell lines; assay: cells
[20] = test system: KM12; conditions: for CC50: read-out: LC50
[21] = test system: SW-620; conditions: for CC50: read-out: LC50
[22] = test system: SNB-19; conditions: for CC50: read-out: LC50
[23] = test system: K-562; conditions: for CC50: read-out: LC50
[24] = test system: Ovarian cell lines; assay: NCI anticancer screen, by tissue type; conditions: for GI50: read-out: median GI50; for CC50: read-out: median LC50
[25] = all cell lines of the NCI screen

Work on CC(=O)C=CSc1ncnc2nc[nH]c12 [cis-AVTP, 6-(2-acetylvinylthio) purine] yielded an IC50 ([1]; Homo sapiens, A498, A-498, 24 h drug incubation) of 107 ± 14.7 µM, an IC50 ([1]; Homo sapiens, A498, A-498, 48 h drug incubation) of 24.6 ± 4 µM and an IC50 ([1]; Homo sapiens, A498, A-498, 72 h incubation, MTT) of 8 ± 1.2 µM. For the same molecule, the IC50 ([1]; Homo sapiens, A498, A-498, 96 h drug incubation) was 5.5 ± 0.9 µM, the IC50 ([2]; Homo sapiens, 24 h drug incubation) was 58.2 ± 1.7 µM and the IC50 ([2]; Homo sapiens, 48 h drug incubation) was 8.7 ± 0.9 µM. The IC50 ([2]; Homo sapiens, 72 h incubation, MTT) was 3.7 ± 0.7 µM, the IC50 ([2]; Homo sapiens, 96 h drug incubation) was 3.5 ± 0.4 µM and the GI50 [3] was under 2 µM. The “median TGI” value [3, 25] was 4.56 µM, the CC50 ([3]; read-out: LC50) was under 15 µM and the GI50 ([3]; read-out: median GI50) was 0.6 µM. The CC50 ([3]; read-out: median LC50) was 38.6 µM, the “median TGI” value [4] was 3.98 µM and the “median TGI” value [5] was 7.09 µM. For the same molecule, the “median TGI” value [6] was 4.42 µM, the “median TGI” value [7] was 2.67 µM and the “median TGI” value [8] was 3.24 µM. The “median TGI” value [9] was 12.2 µM, the “median TGI” value [10] was 10.7 µM and the “median TGI” value ([11]; Leukemia) was 52.5^# μM. For the same molecule, the TGI ([11]; leukemia cell lines CCRF-CEM, HL-60(TB), and RPMI-8226) was under 5 µM, the GI50 ([12]; read-out: median GI50) was 0.55 µM and the CC50 ([12]; read-out: median LC50) was over 100 µM. For the same molecule, the GI50 ([13]; read-out: median GI50) was 1.69 µM, the CC50 ([13]; read-out: median LC50) was 54.8 µM and the GI50 ([14]; read-out: median GI50) was 1.13 µM. It also gave a CC50 ([14]; read-out: median LC50) of 25.3 µM, a GI50 ([15]; read-out: median GI50) of 0.49 µM and a CC50 ([15]; read-out: median LC50) of 10.7 µM. It also gave a GI50 ([16]; read-out: median GI50) of 0.48 µM, a CC50 ([16]; read-out: median LC50) of 9.58 µM and a GI50 ([17]; read-out: median GI50) of 1.59 µM. It also gave a CC50 ([17]; read-out: median LC50) of 53.7 µM, a GI50 ([18]; read-out: median GI50) of 1.69 µM and a CC50 ([18]; read-out: median LC50) of 52.7 µM. It also gave a GI50 [19] of under 0.5 µM, a GI50 ([19]; read-out: median GI50) of 0.19 µM and a CC50 ([19]; read-out: median LC50) of over 100 µM. The GI50 ([20]; Homo sapiens, KM12, 48 h) was 3.35 µM, the CC50 ([20]; Homo sapiens, KM12, 48 h) was over 100 µM and the TGI ([20]; KM12, Colon, 48 h) was 27.2 µM. It also gave a GI50 ([21]; Homo sapiens, SW-620, 48 h) of 1.52 µM, a CC50 ([21]; Homo sapiens, SW-620, 48 h) of over 100 µM and a TGI ([21]; SW-620, Colon, 48 h) of over 100 µM. The GI50 ([22]; Homo sapiens, SNB-19, 48 h) was 3.66 µM, the CC50 ([22]; Homo sapiens, SNB-19, 48 h) was 76.3 µM and the TGI ([22]; SNB-19, CNS, 48 h) was 18.2 µM. For the same molecule, the GI50 ([23]; Homo sapiens, K562, 48 h) was 0.09 µM, the CC50 ([23]; Homo sapiens, K562, 48 h) was over 100 µM and the TGI ([23]; K-562, Leukemia, 48 h) was over 100 µM. For the same molecule, the “median TGI” value ([24]; Ovarian) was 4.55 µM, the GI50 [24] was 0.91 µM and the CC50 [24] was 27.7 µM.

CC(=O)C=CSc1nc(N)nc2nc[nH]c12 [trans-AVTG, 6-(2-acetylvinylthio) guanine] was tested, and the IC50 ([1]; A-498, 72 h incubation, MTT) was 9.7 ± 2 µM, the IC50 ([2]; 72 h incubation, MTT) was 4.1 ± 0.4 µM and the “median TGI” value [3, 25] was 12.9 µM. For the same molecule, the GI50 ([3]; read-out: median GI50, all cell lines of the NCI screen) was 0.98 µM, the CC50 ([3]; read-out: median LC50, all cell lines of the NCI screen) was 76.2 µM and the “median TGI” value [4] was 11.6 µM. The GI50 ([4]; read-out: median GI50) was 0.97 µM, the CC50 ([4]; read-out: median LC50) was 88.1 µM and the “median TGI” value [5] was 19.7 µM. For the same molecule, the GI50 ([5]; read-out: median GI50) was 3.96 µM, the CC50 ([5]; read-out: median LC50) was 62.5 µM and the “median TGI” value [6] was 9.50 µM. The GI50 ([6]; read-out: median GI50) was 1.43 µM, the CC50 ([6]; read-out: median LC50) was 62.6 µM and the “median TGI” value [7] was 14.3 µM. For the same molecule, the GI50 ([7]; read-out: median GI50) was 0.98 µM, the CC50 ([7]; read-out: median LC50) was 52.8 µM and the “median TGI” value [8] was 10.1 µM. The GI50 ([8]; read-out: median GI50) was 0.73 µM, the CC50 ([8]; read-out: median LC50) was 53.1 µM and the “median TGI” value [9] was 19.4 µM. The GI50 ([9]; read-out: median GI50) was 2.52 µM, the CC50 ([9]; read-out: median LC50) was 61.5 µM and the “median TGI” value [10] was 32.4 µM. For the same molecule, the GI50 ([10]; read-out: median GI50) was 3.68 µM, the CC50 ([10]; read-out: median LC50) was over 100 µM and the “median TGI” value ([11]; Leukemia) was 13.4 µM. It also gave a GI50 ([11]; read-out: median GI50, Leukemia) of 0.37 µM, a CC50 ([11]; read-out: median LC50, Leukemia) of over 100 µM and a GI50 ([20]; KM12, Colon, 48 h) of 2.71 µM. The TGI ([20]; KM12, Colon, 48 h) was 13.0 µM, the CC50 ([20]; KM12, Colon, 48 h) was 64.8 µM and the GI50 ([21]; SW-620, Colon, 48 h) was 1.13 µM. It also gave a TGI ([21]; SW-620, Colon, 48 h) of 6.50 µM, a CC50 ([21]; SW-620, Colon, 48 h) of over 100 µM and a GI50 ([22]; SNB-19, CNS, 48 h) of 18.7 µM. For the same molecule, the TGI ([22]; SNB-19, CNS, 48 h) was 50.9 µM, the CC50 ([22]; SNB-19, CNS, 48 h) was over 100 µM and the GI50 ([23]; K-562, Leukemia, 48 h) was 0.5 µM. The TGI ([23]; K-562, Leukemia, 48 h) was over 100 µM, the CC50 ([23]; K-562, Leukemia, 48 h) was over 100 µM and the “median TGI” value ([24]; Ovarian) was 3.41 µM. For the same molecule, the GI50 ([24]; Ovarian) was 0.39 µM and the CC50 ([24]; Ovarian) was 51.4 µM.

Reference: US20040023994A1 (priority 2002, published 2004)
